From patent US4487718A, “Peptides” (Kowa Company, Ltd., priority 1983, dated 1984)

What was measured:
[1] = target: T1, activated blood coagulation factor XIII (Homo sapiens, UniProt P00488); experiment: Crosslinking capacity of the peptide (Ia) to fibrin (125I-labeled peptide, fibrin clot radioactivity); assay type: biochemical
T1 sequence (P00488 39-732 limits assumed): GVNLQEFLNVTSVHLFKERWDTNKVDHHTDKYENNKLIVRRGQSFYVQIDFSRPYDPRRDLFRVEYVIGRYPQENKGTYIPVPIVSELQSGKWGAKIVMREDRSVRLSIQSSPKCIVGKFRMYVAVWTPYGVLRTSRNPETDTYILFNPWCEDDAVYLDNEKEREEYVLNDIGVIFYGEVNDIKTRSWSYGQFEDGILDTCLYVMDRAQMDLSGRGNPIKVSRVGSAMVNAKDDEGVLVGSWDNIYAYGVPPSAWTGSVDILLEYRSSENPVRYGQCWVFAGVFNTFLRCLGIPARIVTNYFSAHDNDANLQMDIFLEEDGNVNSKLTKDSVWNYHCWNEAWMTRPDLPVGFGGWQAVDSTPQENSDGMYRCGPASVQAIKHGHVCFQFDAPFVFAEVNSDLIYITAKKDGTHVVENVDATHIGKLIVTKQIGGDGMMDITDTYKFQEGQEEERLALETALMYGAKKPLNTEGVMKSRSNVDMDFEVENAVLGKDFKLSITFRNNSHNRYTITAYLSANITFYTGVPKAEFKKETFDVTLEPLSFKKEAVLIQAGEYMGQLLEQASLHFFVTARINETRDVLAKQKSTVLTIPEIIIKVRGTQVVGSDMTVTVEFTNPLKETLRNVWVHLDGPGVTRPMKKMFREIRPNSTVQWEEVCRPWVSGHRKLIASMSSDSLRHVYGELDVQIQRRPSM
Protocol: To a mixed solution of 20 μl of the peptide (Ia) labeled with a radioactive isotope ^125 I, 20 μl of fibrinogen (30 mg/ml, 88 μM, containing 2 or 10 μ/ml of the blood coagulation factor XIII) and 140 μl of a Tris buffer, was added 20 μl of a mixed solution of thrombin (3.3 u/ml) and calcium chloride (50 mM). The resulting mixture was then incubated at 37° C.
The clotting sample was frozen instantaneously at each time with dry ice/acetone to terminate the reaction and then lyophilized. The resulting fibrin film was washed three times, each for 5 minutes, with 200 μl of 50 mM EDTA containing 1% of BSA (brovine serum albmin). The thus washed fibrin film was measured in its radioactivity to determine the amount of the peptide coupled with the fibrin [see "Biochim, Biophys, Acta", 661, 280-286, (1981)].

fibrin clot [2] = experiment: Fibrinolysis-accelerating effect: release of 125I from fibrin clots of platelet-rich plasma; parameters: species or system human; conditions: peptide 0-500 μM, FIG. 3
Protocol: Healthy human blood to which sodium citrate had been added, was subjected to centrifugal separation to prepare platelet-rich plasma. A trace amount of ^125 I-labeled fibrinogen was added to and mixed with the platelet-rich plasma. 250 mM solutions of calcium chloride which contained the peptide (Ia) at different levels (0-5 mM) were poured, each in a volume of 20 μl, into glass test tubes. Each test tube was added with 180 μl of the above plasma and then allowed to stand at 37° C. A fibrin clot was formed in several minutes. Clot retraction started about 15 minutes later and was completed in about 30 minutes.
Thereafter, 800 μl of platelet-poor plasma which contained the peptide (Ia) at different levels (0-500 μM) and 1 u of Hirudin was added to each of the test tubes. The test tube was then incubated at 37° C. The contents were sampled periodically to measure ^125 I released into the supernatant.

fibrin clot [3] = experiment: Synergistic effects in combination with tissue plasminogen activator (TPA), added before or after clot formation; parameters: species or system human; conditions: with melanoma-derived TPA, compared with no activator, FIGS. 4 and 5
Protocol: Healthy human blood to which sodium citrate had been added, was subjected to centrifugal separation to prepare platelet-rich plasma. A trace amount of ^125 I-labeled fibrinogen was added to and mixed with the platelet-rich plasma. 250 mM solutions of calcium chloride which contained the peptide (Ia) at different levels (0-5 mM) and 1 u/ml of a melanoma-derived tissue plasminogen activator (TPA), were poured 20 μl by 20 μl into glass test tubes, each of which was then added with 180 μl of the above plasma. A fibrin clot was formed in several minutes. Clot retraction started about 15 minutes later and was completed in about 30 minutes.
Thereafter, each test tube was added with 800 μl of platelet-poor plasma which contained the peptide (Ia) at different levels (0-500 μM) and 1 u of Hirudin. The test tube was then incubated at 37° C. The contents were sampled periodically to measure ^125 I released into the supernatant.
Healthy human blood to which sodium citrate had been added, was subjected to centrifugal separation to prepare platelet-rich plasma. A trace amount of ^125 I-labeled fibrinogen was added to and mixed with the platelet-rich plasma. 250 mM solutions of calcium chloride were poured 20 μl by 20 μl into glass test tubes, each of which was then added with 180 μl of the above plasma. A fibrin clot was formed in several minutes. […]

[4] = target: T2, crosslinking of α2 -PI to fibrin (Homo sapiens, UniProt P00488); experiment: Inhibitory effect against the crosslinking of α2 -PI to fibrin; assay type: biochemical; conditions: peptide 0-50 mM solution, α2 -PI 10 μM solution; FIG. 2
T2 sequence (P00488 39-732 limits assumed): T1 sequence (P00488 39-732 limits assumed)
Protocol: Twenty microliters of a mixed solution of thrombin (3.3 u/ml) and calcium chloride (50 mM) was added to a mixed solution consisting of 20 μl of fibrinogen (30 mg/ml, 88 μM, containing 10 u/ml of the blood coagulation factor XIII), 20 μl of α2 -PI (0.67 mg/ml, 10 μM), 20 μl of a ^125 I-labeled peptide (0-50 mM) and 120 μl of a Tris buffer. The amount of the peptide bonded to the resulting fibrin clot was then determined in the same manner as in Experiment 1.
On the other hand, the amount of α2 -PI coupled with a fibrin clot was also determined using ^125 I-labeled α2 -PI and an unlabeled peptide.

amount of the peptide coupled with the fibrin at equilibrium ([1]; 125I-labeled peptide, fibrinogen containing factor XIII, thrombin, calcium chloride, 37° C., FIG. 1): about 40%
crosslinking velocity to fibrin ([1]; compared with α2 -PI, FIG. 1): substantially the same as that of α2 -PI
glutamine substrate for the activated blood coagulation factor XIII ([1]; conclusion from Experiment 1): good glutamine substrate
inhibition of the crosslinking of α2 -PI to the fibrin [4]: inhibits competitively
Substance: L-Asn-L-Gln-L-Glu-L-Gln-L-Val-L-Ser-L-Pro-L-Leu-L-Thr-L-Gly-L-Leu-L-Lys-NH [peptide (Ia)]
fibrinolysis-accelerating effect (dissolution of fibrin clot) (fibrin clot [2]; human platelet-rich plasma clot, 37° C., compared with absence of peptide): has a fibrinolysis-accelerating effect
dependence of the fibrinolysis-accelerating effect on the amount added (fibrin clot [2]): proportional to the amounts of the peptide (Ia) added
fibrinolysis-accelerating effect in combination with a plasminogen activator (fibrin clot [3]): synergistically enhanced fibrinolysis-accelerating effect
